# Assay results reported in patent US20080194482A1, “Selective Apac2 Receptor Peptide Agonists” (priority 2005, published 2008).
# Square brackets hold non-standard residues; d marks the D form. Peptide text beside a SMILES is read from it. * marks the point of attachment. Orn = NCCC[C@H](N)C(=O)O; Hexanoyl = CCCCCC(=O)*; Aib = CC(C)(N)C(=O)O
# Columns and labels:
# rat VPAC2 receptor = biological target: T1, rat VPAC2 receptor (Rattus norvegicus, UniProt P35000); assay: DiscoveRx cAMP assay, in vitro potency at rat VPAC2 receptor; format: cell-based; conditions: CHO-PO cells transiently transfected with rat VPAC2; cAMP generation; mean of two independent runs
# T1 construct: expressed in transfected cells; host or cells: CHO-PO (transient, Lipofectamine)
# T1 sequence (P35000 23-437): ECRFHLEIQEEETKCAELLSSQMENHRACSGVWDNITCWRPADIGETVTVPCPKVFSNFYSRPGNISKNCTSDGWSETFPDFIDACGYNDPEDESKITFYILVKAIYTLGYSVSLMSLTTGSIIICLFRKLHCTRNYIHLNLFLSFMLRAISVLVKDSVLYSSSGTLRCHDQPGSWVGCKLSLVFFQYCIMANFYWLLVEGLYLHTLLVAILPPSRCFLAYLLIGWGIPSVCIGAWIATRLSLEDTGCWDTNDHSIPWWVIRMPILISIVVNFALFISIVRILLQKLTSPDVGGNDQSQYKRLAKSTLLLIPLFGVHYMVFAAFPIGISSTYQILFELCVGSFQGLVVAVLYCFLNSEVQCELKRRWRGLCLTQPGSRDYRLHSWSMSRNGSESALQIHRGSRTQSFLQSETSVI
# Procedure: DiscoveRx: CHO-PO cells are transiently transfected with rat VPAC1 or VPAC2 receptor DNA using commercially available transfection reagents (Lipofectamine from Invitrogen). The cells are seeded at a density of 10,000/well in a 96-well plate and are allowed to grow for 3 days in […] culture medium. At day 3, the assay is performed.
# On the day of the experiment, the medium is removed. Also, the cells are washed twice. The cells are incubated in assay buffer plus IBMX for 15 minutes at room temperature. Afterwards, the stimuli are added and are dissolved in assay buffer. The stimuli are present for 30 minutes. Then, the assay buffer is gently removed. The cell lysis reagent of the DiscoveRx cAMP kit is added. Thereafter, the standard protocol for developing the cAMP signal as described by the manufacturer is used (DiscoveRx Inc., USA). EC50 values for cAMP generation are calculated from the raw signal or are based on absolute cAMP levels as determined by a standard curve performed on each plate.
# Results for each agonist are the mean of two independent runs. Rat VPAC1 and VPAC2 results are only generated using the DiscoveRx assay.
# human VPAC1 = biological target: T2, human VPAC1 (Homo sapiens, UniProt P32241); assay: Filter binding assay, 125I-labeled VIP tracer, VPAC1 membranes; conditions: read-out: Human VPAC1 Receptor Binding (IC50; nM)
# T2 construct: expressed in transfected cells
# T2 sequence (P32241 31-457): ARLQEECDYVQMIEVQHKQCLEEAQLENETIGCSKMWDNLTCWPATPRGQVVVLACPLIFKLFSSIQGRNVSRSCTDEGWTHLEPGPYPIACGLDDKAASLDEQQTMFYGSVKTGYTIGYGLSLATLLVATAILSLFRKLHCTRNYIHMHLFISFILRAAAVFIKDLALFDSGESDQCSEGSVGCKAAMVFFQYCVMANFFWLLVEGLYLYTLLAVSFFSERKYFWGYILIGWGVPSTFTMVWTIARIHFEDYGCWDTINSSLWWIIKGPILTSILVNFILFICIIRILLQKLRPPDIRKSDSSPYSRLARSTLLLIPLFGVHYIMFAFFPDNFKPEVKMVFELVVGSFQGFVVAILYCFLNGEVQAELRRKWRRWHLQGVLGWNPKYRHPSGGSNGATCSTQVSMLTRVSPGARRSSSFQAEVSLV
# human VPAC2 [1] = biological target: T3, human VPAC2 (Homo sapiens, UniProt P41587); assay: Alpha screen cAMP assay, in vitro potency at human VPAC2 receptor; format: cell-based; conditions: cAMP generation; single result from two analyses in a single run, some values average of more than one experiment
# T3 construct: expressed in transfected cells
# T3 sequence (P41587 24-438): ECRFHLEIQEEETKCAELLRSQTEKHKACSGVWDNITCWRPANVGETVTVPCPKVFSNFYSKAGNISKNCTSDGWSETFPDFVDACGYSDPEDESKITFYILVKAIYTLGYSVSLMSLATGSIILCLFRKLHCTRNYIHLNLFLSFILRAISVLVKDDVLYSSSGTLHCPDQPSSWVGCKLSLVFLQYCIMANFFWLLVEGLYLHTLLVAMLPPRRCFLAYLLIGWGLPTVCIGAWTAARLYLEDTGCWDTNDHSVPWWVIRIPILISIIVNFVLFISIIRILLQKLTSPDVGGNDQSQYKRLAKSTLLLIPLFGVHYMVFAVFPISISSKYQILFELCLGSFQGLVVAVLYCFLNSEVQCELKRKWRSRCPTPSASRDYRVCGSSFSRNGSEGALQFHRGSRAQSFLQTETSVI
# Procedure: Alpha screen: Cells are washed in the culture flask once with PBS. Then, the cells are rinsed with enzyme free dissociation buffer. The dissociated cells are removed. The cells are then spun down and washed in stimulation buffer. For each data point, 50,000 cells suspended in stimulation buffer are used. To this buffer, Alpha screen acceptor beads are added along with the stimuli. This mixture is incubated for 60 minutes. Lysis buffer and Alpha screen donor beads are added and are incubated for 60 to 120 minutes. The Alpha screen signal (indicative of intracellular cAMP levels) is read in a suitable instrument (e.g. AlphaQuest from Perkin-Elmer). Steps including Alpha screen donor and acceptor beads are performed in reduced light. The EC50 for cAMP generation is calculated from the raw signal or is based on absolute cAMP levels as determined by a standard curve performed on each plate.
# Results for each agonist are, at minimum, from two analyses performed in a single run. For some agonists, the results are the mean of more than one run. The tested peptide concentrations are: 10000, 1000, 100, 10, 3, 1, 0.1, 0.01, 0.003, 0.001, 0.0001 and 0.00001 nM.
# [2] = Rat serum stability (activity remaining, CHO-VPAC2 DiscoveRx read-out); format: in vitro ADME
# In short: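 Peptides preincubated overnight in rat serum at 37 °C without aprotinin versus 4 °C with aprotinin, then tested as 11-point 5× dilutions in duplicate on CHO-VPAC2 cells, 30 min at RT. cAMP measured by DiscoveRx kit against standards; EC50 derived for each aliquot.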
# human VPAC2 [3] = biological target: T3, human VPAC2; assay: Filter binding assay, 125I-labeled VIP tracer, VPAC2 membranes; conditions: read-out: Human VPAC2 Receptor Binding (IC50; nM)
# human PAC1 = biological target: T4, human PAC1 (Homo sapiens, UniProt P41586); assay: Filter binding assay, 125I-labeled PACAP-27 tracer, PAC1 membranes; conditions: read-out: Human PAC1 Receptor Binding (IC50; nM)
# T4 construct: expressed in transfected cells
# T4 sequence (P41586 21-468): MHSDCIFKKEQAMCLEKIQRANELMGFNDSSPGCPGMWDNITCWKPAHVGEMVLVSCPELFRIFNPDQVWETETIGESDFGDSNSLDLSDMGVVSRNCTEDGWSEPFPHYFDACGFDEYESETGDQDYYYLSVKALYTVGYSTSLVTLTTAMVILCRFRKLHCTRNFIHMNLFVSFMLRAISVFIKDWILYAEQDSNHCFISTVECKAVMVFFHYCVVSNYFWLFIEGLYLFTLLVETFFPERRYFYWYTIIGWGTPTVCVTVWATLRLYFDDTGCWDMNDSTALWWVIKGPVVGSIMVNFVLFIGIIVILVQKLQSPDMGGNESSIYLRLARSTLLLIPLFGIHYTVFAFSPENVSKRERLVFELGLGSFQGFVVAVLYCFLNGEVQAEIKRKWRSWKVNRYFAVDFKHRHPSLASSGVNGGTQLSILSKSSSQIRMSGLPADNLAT
# Procedure: For this assay, the solutions and equipment include:
# Presoak solution: 0.5% Polyethyleneamine in Aqua dest
# Buffer for flushing filter plates: 25 mM HEPES pH 7.4
# Blocking buffer: 25 mM HEPES pH 7.4; 0.2% protease free BSA
# Assay buffer: 25 mM HEPES pH 7.4; 0.5% protease free BSA
# Dilution and assay plate: PS-Microplate, U form
# Filtration Plate: Multiscreen FB Opaque Plate; 1.0 μM Type B Glasfiber filter
# In order to prepare the filter plates, the presoak solution is aspirated by vacuum filtration. The plates are flushed twice with 200 μL flush buffer. 200 μL blocking buffer is added to the filter plate. The filter plate is then incubated with 200 μL presoak solution for 1 hour at room temperature.
# The assay plate is filled with 25 μL assay buffer, 25 μL membranes (2.5 μg) suspended in assay buffer, 25 μL compound (agonist) in assay buffer, and 25 μL tracer (about 40000 cpm) in assay buffer. The filled plate is incubated for 1 hour with shaking.
# The transfer from assay plate to filter plate is conducted. The blocking buffer is aspirated by vacuum filtration and washed two times with flush buffer. 90 μL is transferred from the assay plate to the filter plate. The 90 μL transferred from assay plate is aspirated and washed three times with 200 μL flush buffer. The plastic support is removed. It is dried for 1 hour at 60° C. 30 μL Microscint is added. The count is performed.
Structure (SMILES),EC50 (rat VPAC2 receptor),IC50 (human VPAC1),EC50 (human VPAC2 [1]),Rat Serum Stability (estimated purity in % after overnight incub.) [2],IC50 (human VPAC2 [3]),IC50 (human PAC1)
CCCCCC(=O)N[C@@H](Cc1c[nH]cn1)C(=O)N[C@@H](CO)C(=O)N[C@@H](CC(=O)O)C(=O)N[C@@H](C)C(=O)N[C@H](C(=O)N[C@@H](Cc1ccccc1)C(=O)N[C@H](C(=O)N[C@@H](CCC(=O)O)C(=O)N[C@@H](CCC(N)=O)C(=O)N[C@@H](Cc1ccc(OC)cc1)C(=O)N[C@H](C(=O)N[C@@H](CCCN)C(=O)N[C@@H](CC(C)C)C(=O)N[C@@H](CCCNC(=N)N)C(=O)NC(C)(C)C(=O)N[C@@H](CCC(N)=O)C(=O)N[C@@H](CC(C)C)C(=O)N[C@@H](C)C(=O)N[C@@H](C)C(=O)NC(C)(C)C(=O)N[C@@H](CCCN)C(=O)N[C@@H](Cc1ccc(O)cc1)C(=O)N[C@@H](CC(C)C)C(=O)N[C@@H](CCC(N)=O)C(=O)N[C@@H](CO)C(=O)N[C@H](C(=O)N[C@@H](CCCN)C(=O)N[C@@H](CCCN)C(=O)NCC(=O)NCC(=O)N1CCC[C@H]1C(=O)N[C@@H](CO)C(=O)N[C@@H](CO)C(=O)NCC(=O)N[C@@H](C)C(=O)N1CCC[C@H]1C(=O)N1CCC[C@H]1C(=O)N1CCC[C@H]1C(=O)N[C@@H](CO)C(N)=O)[C@@H](C)CC)[C@@H](C)O)[C@@H](C)O)C(C)C [Agonist P487] (Hexanoyl-HSDAVFTEQY(Me)T[Orn]LR[Aib]QLAA[Aib][Orn]YLQSI[Orn][Orn]GGPSSGAPPPS-NH2),0.03 nM,> 1000 nM,0.24 nM,76.98%,0.64 nM,–
CCCCCC(=O)N[C@@H](Cc1c[nH]cn1)C(=O)N[C@@H](CO)C(=O)N[C@@H](CC(=O)O)C(=O)N[C@@H](C)C(=O)N[C@H](C(=O)N[C@@H](Cc1ccccc1)C(=O)N[C@H](C(=O)N[C@@H](CC(=O)O)C(=O)N[C@@H](CC(N)=O)C(=O)N[C@@H](Cc1ccc(O)cc1)C(=O)N[C@H](C(=O)N[C@@H](CC(C)C)C(=O)N[C@@H](CC(C)C)C(=O)N[C@@H](CCCNC(=N)N)C(=O)NC(C)(C)C(=O)N[C@@H](CCC(N)=O)C(=O)N[C@H](C(=O)N[C@@H](C)C(=O)N[C@@H](C)C(=O)NC(C)(C)C(=O)N[C@@H](CCCCN)C(=O)N[C@@H](Cc1ccc(O)cc1)C(=O)N[C@@H](CC(C)C)C(=O)N[C@@H](CCC(N)=O)C(=O)N[C@@H](CO)C(=O)N[C@H](C(=O)N[C@@H](CCCN)C(=O)N[C@@H](CC(N)=O)C(=O)N[C@@H](CCCN)C(=O)NCC(=O)NCC(=O)N1CCC[C@H]1C(=O)N[C@@H](CO)C(=O)N[C@@H](CO)C(=O)NCC(=O)N[C@@H](C)C(=O)N1CCC[C@H]1C(=O)N1CCC[C@H]1C(=O)N1CCC[C@H]1C(=O)N[C@@H](CO)C(=O)O)[C@@H](C)CC)C(C)C)[C@@H](C)O)[C@@H](C)O)C(C)C [Agonist P367] (Hexanoyl-HSDAVFTDNYTLLR[Aib]QVAA[Aib]KYLQSI[Orn]N[Orn]GGPSSGAPPPS-OH; C-terminus assumed),–,> 3000 nM,–,55.82%,> 100 nM,> 25000 nM
CCCCCC(=O)N[C@@H](Cc1c[nH]cn1)C(=O)N[C@@H](CO)C(=O)N[C@@H](CC(=O)O)C(=O)N[C@@H](C)C(=O)N[C@H](C(=O)N[C@@H](Cc1ccccc1)C(=O)N[C@H](C(=O)N[C@@H](CC(=O)O)C(=O)N[C@@H](CC(N)=O)C(=O)N[C@@H](Cc1ccc(O)cc1)C(=O)N[C@H](C(=O)N[C@@H](CCCN)C(=O)N[C@@H](CC(C)C)C(=O)N[C@@H](CCCNC(=N)N)C(=O)NC(C)(C)C(=O)N[C@@H](CCC(N)=O)C(=O)N[C@H](C(=O)N[C@@H](C)C(=O)N[C@@H](C)C(=O)NC(C)(C)C(=O)N[C@@H](CCCCN)C(=O)N[C@@H](Cc1ccc(O)cc1)C(=O)N[C@@H](CC(C)C)C(=O)N[C@@H](CO)C(=O)N[C@@H](CO)C(=O)N[C@H](C(=O)N[C@@H](CCCN)C(=O)N[C@@H](CC(N)=O)C(=O)N[C@@H](CCCN)C(=O)NCC(=O)NCC(=O)N1CCC[C@H]1C(=O)N[C@@H](CO)C(=O)N[C@@H](CO)C(=O)NCC(=O)N[C@@H](C)C(=O)N1CCC[C@H]1C(=O)N1CCC[C@H]1C(=O)N1CCC[C@H]1C(=O)N[C@@H](CO)C(=O)O)[C@@H](C)CC)C(C)C)[C@@H](C)O)[C@@H](C)O)C(C)C [Agonist P383] (Hexanoyl-HSDAVFTDNYT[Orn]LR[Aib]QVAA[Aib]KYLSSI[Orn]N[Orn]GGPSSGAPPPS-OH; C-terminus assumed),0.18 nM,> 3000 nM,0.12 nM,113.66%,–,> 25000 nM
CCCCCC(=O)N[C@@H](Cc1c[nH]cn1)C(=O)N[C@@H](CO)C(=O)N[C@@H](CC(=O)O)C(=O)N[C@@H](C)C(=O)N[C@H](C(=O)N[C@@H](Cc1ccccc1)C(=O)N[C@H](C(=O)N[C@@H](CC(=O)O)C(=O)N[C@@H](CC(N)=O)C(=O)N[C@@H](Cc1ccc(O)cc1)C(=O)N[C@H](C(=O)N[C@@H](CCCN)C(=O)N[C@@H](CC(C)C)C(=O)N[C@@H](CCCNC(=N)N)C(=O)NC(C)(C)C(=O)N[C@@H](CO)C(=O)N[C@H](C(=O)N[C@@H](C)C(=O)N[C@@H](C)C(=O)NC(C)(C)C(=O)N[C@@H](CCCCN)C(=O)N[C@@H](Cc1ccc(O)cc1)C(=O)N[C@@H](CC(C)C)C(=O)N[C@@H](CCC(N)=O)C(=O)N[C@@H](CO)C(=O)N[C@H](C(=O)N[C@@H](CCCN)C(=O)N[C@@H](CC(N)=O)C(=O)N[C@@H](CCCN)C(=O)NCC(=O)NCC(=O)N1CCC[C@H]1C(=O)N[C@@H](CO)C(=O)N[C@@H](CO)C(=O)NCC(=O)N[C@@H](C)C(=O)N1CCC[C@H]1C(=O)N1CCC[C@H]1C(=O)N1CCC[C@H]1C(=O)N[C@@H](CO)C(=O)O)[C@@H](C)CC)C(C)C)[C@@H](C)O)[C@@H](C)O)C(C)C [Agonist P390] (Hexanoyl-HSDAVFTDNYT[Orn]LR[Aib]SVAA[Aib]KYLQSI[Orn]N[Orn]GGPSSGAPPPS-OH; C-terminus assumed),0.09 nM,–,0.12 nM,–,0.26 nM,> 25000 nM
